From ChEMBL document CHEMBL5715936, “Selective Itk inhibitors block T-cell activation and murine lung inflammation” (Biochemistry, 2004) come the findings set out here.

Calls of active or inactive are those of the source. The rule behind the calls is not given here.

Assay [1] addresses Tyrosine-protein kinase Lck (Homo sapiens, UniProt P06239). Put plainly: Inhibition of Lck (unknown origin) using GST-SLP-76 as peptide substrate incubated for 10 mins in presence of [gamma-33P]ATP by scintillation counter assay.
Assay [2] addresses T1, Cytoplasmic tyrosine-protein kinase BMX (Homo sapiens, UniProt P51813).
T1 sequence (P51813 whole entry): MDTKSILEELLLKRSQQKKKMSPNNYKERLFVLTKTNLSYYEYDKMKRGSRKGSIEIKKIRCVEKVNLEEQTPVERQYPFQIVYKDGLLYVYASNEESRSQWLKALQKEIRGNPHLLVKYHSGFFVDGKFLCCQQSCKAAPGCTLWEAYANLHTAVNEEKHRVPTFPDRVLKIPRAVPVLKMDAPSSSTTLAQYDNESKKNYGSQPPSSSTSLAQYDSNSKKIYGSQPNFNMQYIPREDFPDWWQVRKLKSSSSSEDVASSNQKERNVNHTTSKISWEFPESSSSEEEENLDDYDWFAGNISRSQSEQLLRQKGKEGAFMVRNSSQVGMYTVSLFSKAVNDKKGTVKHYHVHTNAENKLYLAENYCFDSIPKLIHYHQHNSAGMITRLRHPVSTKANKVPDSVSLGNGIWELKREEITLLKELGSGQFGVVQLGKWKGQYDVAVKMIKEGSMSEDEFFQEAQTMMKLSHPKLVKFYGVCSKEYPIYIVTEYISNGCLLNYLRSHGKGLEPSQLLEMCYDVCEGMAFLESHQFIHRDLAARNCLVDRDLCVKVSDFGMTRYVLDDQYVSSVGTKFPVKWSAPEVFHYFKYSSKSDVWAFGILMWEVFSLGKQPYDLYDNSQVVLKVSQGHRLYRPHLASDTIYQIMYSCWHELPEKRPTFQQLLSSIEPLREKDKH
Put plainly: Inhibition of Bmx (unknown origin) using GST-SLP-76 as peptide substrate incubated for 10 mins in presence of [gamma-33P]ATP by scintillation counter assay.

In assay [3] the target is T2, Tyrosine-protein kinase ITK/TSK (Homo sapiens) (UniProt Q08881).
T2 sequence (whole entry): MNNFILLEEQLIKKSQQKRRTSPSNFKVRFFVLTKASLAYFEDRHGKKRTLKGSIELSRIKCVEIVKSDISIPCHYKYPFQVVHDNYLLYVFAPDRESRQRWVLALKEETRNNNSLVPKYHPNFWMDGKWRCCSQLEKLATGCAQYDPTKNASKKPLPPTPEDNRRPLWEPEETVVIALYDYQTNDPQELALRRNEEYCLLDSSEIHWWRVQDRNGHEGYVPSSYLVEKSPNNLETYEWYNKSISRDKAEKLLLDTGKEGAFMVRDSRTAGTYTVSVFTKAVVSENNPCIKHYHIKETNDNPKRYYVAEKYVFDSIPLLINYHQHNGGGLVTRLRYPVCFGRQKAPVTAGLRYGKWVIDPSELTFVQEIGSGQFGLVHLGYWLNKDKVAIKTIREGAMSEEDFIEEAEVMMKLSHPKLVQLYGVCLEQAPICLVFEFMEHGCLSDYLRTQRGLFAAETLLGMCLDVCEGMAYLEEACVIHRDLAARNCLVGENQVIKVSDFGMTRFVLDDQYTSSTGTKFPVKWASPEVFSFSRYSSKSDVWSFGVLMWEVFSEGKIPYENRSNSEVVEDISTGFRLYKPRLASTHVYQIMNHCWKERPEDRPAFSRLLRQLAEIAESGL
In words: Inhibition of Itk in EGF-stimulated human A549 cells assessed as reduction in tyrosine phosphorylation at <=10 uM incubated for 20 mins by Western blotting analysis. Format: cell-based.

Assay [4] in a line: Inhibition of CaMKII (unknown origin) using GST-SLP-76 as peptide substrate incubated for 10 mins in presence of [gamma-33P]ATP by scintillation counter assay. Also noted: species or system Homo sapiens.
For assay [5], the target named is Mitogen-activated protein kinase 3 (Homo sapiens, UniProt P27361). Put plainly: Inhibition of ERK-1 (unknown origin) using GST-SLP-76 as peptide substrate incubated for 10 mins in presence of [gamma-33P]ATP by scintillation counter assay.
For assay [6], the target named is Glycogen synthase kinase-3 beta (Homo sapiens, UniProt P49841). In words: Inhibition of GSK-3beta (unknown origin) using GST-SLP-76 as peptide substrate incubated for 10 mins in presence of [gamma-33P]ATP by scintillation counter assay.
For assay [7], the target named is Tyrosine-protein kinase SYK (Homo sapiens, UniProt P43405). Put plainly: Inhibition of Syk (unknown origin) using GST-SLP-76 as peptide substrate incubated for 10 mins in presence of [gamma-33P]ATP by scintillation counter assay.
Assay [8] concerns the target T2, Tyrosine-protein kinase ITK/TSK (Homo sapiens). Put plainly: Inhibition of Itk in human Jurkat T cells assessed as inhibition of PLCgamma1 phosphorylation incubated for 20 mins in presence of CD3 antibody G19-4 by Western blotting analysis. Format: cell-based. The following applies: dose 0.1-10 µM. Background: Immunoblotting shows a protein as a band on a membrane.

The target is the same in assay [9]. Put plainly: Inhibition of Itk in human Jurkat T cells assessed as inhibition of tyrosine phosphorylation with 145 kDa molecular weight at 0.1 to 10 uM incubated for 20 mins in presence of CD3 antibody G19-4 by Western blotting analysis. It counts as cell-based. The following applies: dose 0.1-10 µM.
For assay [10], the target named is Inhibitor of nuclear factor kappa-B kinase subunit beta (Homo sapiens, UniProt O14920). Put plainly: Inhibition of IKKbeta (unknown origin) using GST-SLP-76 as peptide substrate incubated for 10 mins in presence of [gamma-33P]ATP by scintillation counter assay.
Assay [11] addresses Insulin receptor (Homo sapiens, UniProt P06213). In words: Inhibition of IR (unknown origin) using GST-SLP-76 as peptide substrate incubated for 10 mins in presence of [gamma-33P]ATP by scintillation counter assay.
Assay [12] has as its system T-cell line. In words: Anti-proliferative activity against irradiated APC induced human T cell incubated for 3 days. It counts as functional, cell-based. Conditions: light or radiation study, 72 h.

Sequence of Insulin receptor (P06213 28-758 limits assumed): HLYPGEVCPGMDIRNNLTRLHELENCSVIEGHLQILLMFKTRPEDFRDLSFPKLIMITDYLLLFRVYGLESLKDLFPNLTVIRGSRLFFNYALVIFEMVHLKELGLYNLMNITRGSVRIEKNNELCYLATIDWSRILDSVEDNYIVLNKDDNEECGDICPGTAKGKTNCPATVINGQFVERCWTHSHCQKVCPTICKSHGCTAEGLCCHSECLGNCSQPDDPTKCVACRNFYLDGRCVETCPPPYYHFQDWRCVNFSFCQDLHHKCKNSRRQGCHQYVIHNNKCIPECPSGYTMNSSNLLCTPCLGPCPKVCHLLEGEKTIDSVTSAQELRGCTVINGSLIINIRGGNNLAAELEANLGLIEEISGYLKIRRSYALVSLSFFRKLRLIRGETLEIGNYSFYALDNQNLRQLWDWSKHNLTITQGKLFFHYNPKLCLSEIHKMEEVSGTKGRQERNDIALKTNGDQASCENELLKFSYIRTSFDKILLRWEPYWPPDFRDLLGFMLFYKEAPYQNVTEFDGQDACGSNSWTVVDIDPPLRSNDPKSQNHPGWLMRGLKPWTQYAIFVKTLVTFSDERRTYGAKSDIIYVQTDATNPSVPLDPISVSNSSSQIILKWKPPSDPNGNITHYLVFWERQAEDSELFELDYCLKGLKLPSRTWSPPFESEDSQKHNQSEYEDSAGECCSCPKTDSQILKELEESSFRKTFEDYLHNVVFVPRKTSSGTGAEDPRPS
Sequence of Insulin receptor (P06213 763-1382 limits assumed): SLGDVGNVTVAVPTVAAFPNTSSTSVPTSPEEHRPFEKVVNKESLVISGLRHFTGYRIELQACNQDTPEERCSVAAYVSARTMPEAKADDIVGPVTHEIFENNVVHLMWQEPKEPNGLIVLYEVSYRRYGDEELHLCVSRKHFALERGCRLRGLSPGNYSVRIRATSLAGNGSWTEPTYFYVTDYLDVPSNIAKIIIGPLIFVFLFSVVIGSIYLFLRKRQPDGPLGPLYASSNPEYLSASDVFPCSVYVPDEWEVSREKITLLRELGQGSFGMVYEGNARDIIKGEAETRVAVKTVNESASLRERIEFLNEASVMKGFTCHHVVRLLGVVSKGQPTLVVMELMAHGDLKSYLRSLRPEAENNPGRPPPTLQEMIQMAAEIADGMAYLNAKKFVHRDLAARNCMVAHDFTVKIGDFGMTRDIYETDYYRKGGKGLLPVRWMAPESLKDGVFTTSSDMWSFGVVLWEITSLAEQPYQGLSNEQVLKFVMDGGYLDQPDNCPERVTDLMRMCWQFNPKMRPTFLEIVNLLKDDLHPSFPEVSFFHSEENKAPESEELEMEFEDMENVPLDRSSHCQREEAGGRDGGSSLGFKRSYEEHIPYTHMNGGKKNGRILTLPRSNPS
Sequence of Tyrosine-protein kinase Lck (P06239 whole entry): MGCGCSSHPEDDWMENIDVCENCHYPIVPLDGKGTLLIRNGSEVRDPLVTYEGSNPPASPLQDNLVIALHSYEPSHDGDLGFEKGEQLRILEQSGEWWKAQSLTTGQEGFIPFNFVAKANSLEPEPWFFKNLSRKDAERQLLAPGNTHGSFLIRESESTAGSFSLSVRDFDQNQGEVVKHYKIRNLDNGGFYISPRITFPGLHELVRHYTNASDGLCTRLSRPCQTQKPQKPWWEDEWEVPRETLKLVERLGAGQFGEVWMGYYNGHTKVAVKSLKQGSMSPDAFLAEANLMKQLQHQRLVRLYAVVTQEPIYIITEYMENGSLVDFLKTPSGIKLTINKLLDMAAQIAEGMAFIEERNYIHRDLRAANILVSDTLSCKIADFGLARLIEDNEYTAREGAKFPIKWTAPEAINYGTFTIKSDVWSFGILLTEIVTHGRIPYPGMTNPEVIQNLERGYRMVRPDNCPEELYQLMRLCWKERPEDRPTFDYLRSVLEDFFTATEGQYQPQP
Sequence of Inhibitor of nuclear factor kappa-B kinase subunit beta (O14920 whole entry): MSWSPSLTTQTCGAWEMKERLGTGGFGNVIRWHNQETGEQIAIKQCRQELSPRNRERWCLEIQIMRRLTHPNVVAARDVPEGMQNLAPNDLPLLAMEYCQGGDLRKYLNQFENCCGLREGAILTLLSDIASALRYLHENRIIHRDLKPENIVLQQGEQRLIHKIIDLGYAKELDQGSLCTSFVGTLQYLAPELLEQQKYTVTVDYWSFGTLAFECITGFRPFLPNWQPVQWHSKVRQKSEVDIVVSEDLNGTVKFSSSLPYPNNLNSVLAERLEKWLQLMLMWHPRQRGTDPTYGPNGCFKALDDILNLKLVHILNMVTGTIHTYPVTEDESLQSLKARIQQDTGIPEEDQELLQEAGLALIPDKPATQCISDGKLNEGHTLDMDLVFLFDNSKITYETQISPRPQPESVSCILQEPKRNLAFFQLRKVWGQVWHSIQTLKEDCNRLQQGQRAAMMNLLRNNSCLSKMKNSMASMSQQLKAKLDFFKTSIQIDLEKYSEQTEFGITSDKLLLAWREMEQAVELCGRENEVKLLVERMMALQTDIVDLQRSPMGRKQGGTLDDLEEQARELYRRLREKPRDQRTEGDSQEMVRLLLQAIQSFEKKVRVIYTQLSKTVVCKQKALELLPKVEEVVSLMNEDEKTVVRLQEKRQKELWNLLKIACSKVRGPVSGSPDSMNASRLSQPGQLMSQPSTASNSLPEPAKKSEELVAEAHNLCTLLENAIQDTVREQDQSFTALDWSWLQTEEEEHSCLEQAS
Sequence of Mitogen-activated protein kinase 3 (P27361 whole entry): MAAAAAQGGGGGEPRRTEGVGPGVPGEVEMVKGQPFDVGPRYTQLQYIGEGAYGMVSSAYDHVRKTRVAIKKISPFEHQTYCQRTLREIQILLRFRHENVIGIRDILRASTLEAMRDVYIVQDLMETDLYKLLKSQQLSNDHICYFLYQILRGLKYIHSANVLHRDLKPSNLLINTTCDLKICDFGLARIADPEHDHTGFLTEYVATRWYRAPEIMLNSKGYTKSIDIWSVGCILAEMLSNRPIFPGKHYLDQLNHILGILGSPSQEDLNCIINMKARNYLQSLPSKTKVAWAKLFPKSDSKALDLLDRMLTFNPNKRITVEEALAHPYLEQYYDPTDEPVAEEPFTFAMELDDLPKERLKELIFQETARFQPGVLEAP
Sequence of Glycogen synthase kinase-3 beta (P49841 whole entry): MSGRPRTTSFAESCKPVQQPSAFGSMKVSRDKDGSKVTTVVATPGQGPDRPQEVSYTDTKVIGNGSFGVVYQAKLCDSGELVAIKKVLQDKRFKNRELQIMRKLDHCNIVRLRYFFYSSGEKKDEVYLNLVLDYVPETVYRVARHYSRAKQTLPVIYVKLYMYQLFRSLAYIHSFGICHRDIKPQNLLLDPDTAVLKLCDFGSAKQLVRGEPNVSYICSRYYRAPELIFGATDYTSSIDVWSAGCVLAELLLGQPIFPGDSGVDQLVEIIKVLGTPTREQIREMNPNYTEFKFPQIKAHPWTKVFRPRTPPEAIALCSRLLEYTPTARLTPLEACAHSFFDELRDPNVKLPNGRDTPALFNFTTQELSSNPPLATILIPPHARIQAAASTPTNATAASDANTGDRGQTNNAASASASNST

Regarding `CC(=O)N1CCN(C(=O)c2cc(CSc3cnc(NC(=O)c4ccc(CNC(C)C(C)(C)C)cc4)s3)cc(C)c2C)CC1` (centres undefined), the half-maximal inhibitory concentration (IC50) (as a rule, the concentration that gives 50% inhibition) in assay [1] was 27 µM; in [2], more than 50 µM; in assay [4], more than 50 µM; in assay [5], more than 50 µM; in assay [6], 47.4 µM; in [7], more than 50 µM. The IC50 in assay [10] is more than 50 µM; in [11], 4400 nM; in [12] it was 350 nM. Further, the inhibition result in assay [3] and in [9] was “Active” in each case. Also, in [8], the inhibition entry was “Dose-Dependent Effect”.

`COc1cc(C)c(Sc2cnc(NC(=O)c3ccc(CNC(C)C(C)(C)C)cc3)s2)cc1C(=O)N1CCN(C(C)=O)CC1` (centres undefined): the IC50 in assay [1] is 2.4 µM; in assay [2], more than 50 µM; in assay [4] it was 33.5 µM; in [5] it was more than 50 µM; in [6], 36 µM; in assay [7], more than 50 µM. Also, the IC50 in assay [10] is more than 50 µM; in assay [11], 1100 nM; in assay [12], 430 nM. The inhibition entry in assay [3] and in assay [9] was “Active” each time. Also, the inhibition result in assay [8] was “Dose-Dependent Effect”.
